# From patent US20060188898A1, “Markers for roscovitine” (Cyclacel Limited, priority 2003, published 2006)
# Assays:
# HT29 colon cancer cells [1] = assay: cDNA microarray analysis of mRNA expression in treated HT29 cells; format: cell-based
# Source text: Total RNA was extracted from cell pellets using TriZol (Life Technologies) and mRNA was purified using the Qiagen Oligotex system. mRNA from control and treated cells was labelled with either Cy3 or Cy5 (NEN or Amersham) fluorescent dCTPs respectively, creating cDNA probes. cDNA microarray slides are made and used as described in Eisen, MB and Brown PO. (1999) DNA Arrays for Analysis of Gene Expression. Methods in Enzymology 303:179-205.
# The cDNA probes were then hybridised to the cDNA microarray slides overnight and then washed and scanned using an Axon Labs GenePix 4000B scanner. The slides were verified using GenePix software and normalised prior to analysis in GeneSpring.
# A 2 fold cut-off was used to assign significance to a change in mRNA expression. Therefore, any mRNA with a normalised ratio of medians less than 0.5 (FIGS. 1, 3, 5 and 7) or greater than 2 (FIGS. 2, 4, 6 and 8) is deemed significant.
# CDK7 = CDK7 (Homo sapiens, UniProt P50613); conditions: cited from earlier work
# CDK7, sequence (P50613 whole entry, species assumed): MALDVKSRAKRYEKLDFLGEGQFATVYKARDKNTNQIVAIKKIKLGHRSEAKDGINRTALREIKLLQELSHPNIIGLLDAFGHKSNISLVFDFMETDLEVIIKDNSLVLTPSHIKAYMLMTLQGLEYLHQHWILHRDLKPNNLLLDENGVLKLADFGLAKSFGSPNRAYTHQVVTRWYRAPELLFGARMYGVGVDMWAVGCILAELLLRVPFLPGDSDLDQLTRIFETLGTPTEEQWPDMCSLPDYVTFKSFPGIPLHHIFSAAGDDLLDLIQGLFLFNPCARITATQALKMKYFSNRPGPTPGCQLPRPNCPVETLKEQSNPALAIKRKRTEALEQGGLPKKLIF
# CDK7, sequence (P51946 whole entry partner, species assumed): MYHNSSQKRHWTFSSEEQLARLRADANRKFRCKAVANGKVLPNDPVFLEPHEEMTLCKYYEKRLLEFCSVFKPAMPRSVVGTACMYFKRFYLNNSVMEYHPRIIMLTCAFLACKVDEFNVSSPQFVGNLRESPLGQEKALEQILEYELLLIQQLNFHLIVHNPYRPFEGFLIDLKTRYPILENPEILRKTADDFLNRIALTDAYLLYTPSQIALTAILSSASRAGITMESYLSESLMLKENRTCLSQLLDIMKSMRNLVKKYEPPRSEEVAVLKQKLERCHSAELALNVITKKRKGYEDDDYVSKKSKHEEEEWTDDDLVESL
# CDK9 = CDK9 (Homo sapiens, UniProt P50750); conditions: cited from earlier work
# CDK9, sequence (P50750 whole entry, species assumed): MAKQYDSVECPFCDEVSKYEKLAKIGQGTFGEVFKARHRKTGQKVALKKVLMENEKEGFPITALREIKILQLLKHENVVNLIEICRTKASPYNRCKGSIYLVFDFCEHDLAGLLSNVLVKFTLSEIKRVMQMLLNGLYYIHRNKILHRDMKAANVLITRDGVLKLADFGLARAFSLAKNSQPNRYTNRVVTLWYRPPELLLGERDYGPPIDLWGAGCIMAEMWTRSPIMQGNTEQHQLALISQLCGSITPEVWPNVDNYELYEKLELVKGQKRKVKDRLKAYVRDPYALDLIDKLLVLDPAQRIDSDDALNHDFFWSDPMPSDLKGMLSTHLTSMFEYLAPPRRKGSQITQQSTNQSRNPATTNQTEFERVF
# CDK9, sequence (O60563 whole entry partner, species assumed): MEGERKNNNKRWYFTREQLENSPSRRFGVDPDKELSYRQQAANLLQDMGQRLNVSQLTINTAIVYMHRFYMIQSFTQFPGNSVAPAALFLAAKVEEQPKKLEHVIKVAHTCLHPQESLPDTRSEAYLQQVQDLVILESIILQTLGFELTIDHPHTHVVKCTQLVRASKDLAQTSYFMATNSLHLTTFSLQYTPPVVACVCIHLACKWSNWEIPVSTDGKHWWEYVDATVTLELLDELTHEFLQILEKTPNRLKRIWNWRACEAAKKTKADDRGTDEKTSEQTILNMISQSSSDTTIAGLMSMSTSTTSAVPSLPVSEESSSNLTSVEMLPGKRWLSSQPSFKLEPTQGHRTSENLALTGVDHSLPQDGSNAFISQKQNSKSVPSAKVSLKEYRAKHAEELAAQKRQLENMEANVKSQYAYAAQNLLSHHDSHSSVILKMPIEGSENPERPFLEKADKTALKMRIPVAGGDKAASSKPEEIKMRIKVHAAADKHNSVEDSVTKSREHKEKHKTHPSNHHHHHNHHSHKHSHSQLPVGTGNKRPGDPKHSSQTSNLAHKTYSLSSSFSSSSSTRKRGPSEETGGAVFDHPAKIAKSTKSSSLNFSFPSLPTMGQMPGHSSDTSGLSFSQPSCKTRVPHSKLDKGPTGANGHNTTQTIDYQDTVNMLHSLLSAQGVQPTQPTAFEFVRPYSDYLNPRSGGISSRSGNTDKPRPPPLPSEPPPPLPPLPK
# cell cycle progression = conditions: cited from earlier work
# HT29 colon cancer cells [2] = assay: Western blotting of protein expression in treated HT29 cells
# Method: HT29 colon cancer cells were seeded into T175 flasks at 3×10^6 cells per flask and allowed to attach for 48 h. […] A cell pellet was made for protein analysis and RNA analysis.
# To harvest cells, the medium was removed and cells were incubated with 5 ml trypsin for 5 min at 37° C. to detach them from the plastic. The cells were then pelleted, washed in ice cold PBS and resuspended in ice cold lysis buffer containing 50 mM HEPES pH7.4, 250 mM NaCl, 0.1% NP40, 1 mM DTT, 1 mM EDTA, 1 mM NaF, 10 mM β-glycerophosphate, 0.1 mM sodium orthovanadate and 1 complete protease inhibitor cocktail tablet (Roche, East Sussex, UK) per 10 ml of lysis buffer for 30 minutes on ice. Lysates were centrifuged at approx. 18, 000×g for 10 minutes at 4° C. to remove cellular debris. The supernatant was stored at −80° C. prior to use. The protein concentration of lysates was determined using the BCA protein assay (Pierce, Rockford, USA). Proteins were separated by SDS-PAGE using Novex precast tris-glycine gels (Invitrogen, Groningen, The Netherlands) and transferred to Immobilon-P membranes (Millipore, Bedford, USA). Membranes were blocked for 1 hour in TBS™ 50 mM Tris pH7.5, 150 mM NaCl, 0.1% Tween 20 (Sigma, Dorset, UK) and 3% milk. Immunoblotting with primary antibodies diluted in TBS™ was performed at 4° C. overnight, followed by a 1 hour incubation with HRP-conjugated secondary antibodies at room temperature. Membranes were washed with ECL reagents and exposed to Hyperfilm (Amersham Pharmacia Biotech, Buckinghamshire, UK).
# [3] = 50 μM CYC202, time course 4-48 h
# [4] = 50 μM CYC202, time course 4-48 h, Western blot
structure (smiles),measurement,setting,value
"CC[C@H](CO)Nc1nc(NCc2ccccc2)c2ncn(C(C)C)c2n1 [CYC202, 2-(R)-(1-ethyl-2-hydroxyethylamino)-6-benzylamino-9-isopropylpurine]",c-JUN mRNA expression,"HT29 colon cancer cells [1]; 50 μM CYC202, 4-48 h",induced to significant levels from 4 h and is maintained at that level for the duration of the experiment
same,EGR-1 mRNA expression,"HT29 colon cancer cells [1]; 50 μM CYC202, 4-48 h, two fold cut off",induced from as early as 4 h and is maintained above the two fold cut off for the duration of the experiment
same,aurora 1 mRNA expression,HT29 colon cancer cells [1]; [3],markedly inhibited
same,cyclin B2 mRNA expression,HT29 colon cancer cells [1]; [3],markedly inhibited
same,polo-like kinase 1 mRNA expression,HT29 colon cancer cells [1]; [3],markedly inhibited
same,inhibition of CDK7,CDK7,inhibit
same,inhibition of CDK9,CDK9,inhibit
same,effect on cell cycle progression,cell cycle progression,block cell cycle progression in late G1/early S and in M-phase
same,c-JUN protein expression,"HT29 colon cancer cells [2]; 50 μM CYC202, 4 h and 12 h, Western blot, phosphorylated, active form",induced at 4 h and 12 h
same,EGR-1 protein expression,"HT29 colon cancer cells [2]; 50 μM CYC202, Western blot",transiently induced at 12 h
same,c-JUN protein expression,"HT29 colon cancer cells [2]; 50 μM CYC202, after 24 h, Western blot",lost after 24 h
same,aurora 1 protein expression,HT29 colon cancer cells [2]; [4],markedly inhibited
same,cyclin B2 protein expression,HT29 colon cancer cells [2]; [4],markedly inhibited
same,polo-like kinase 1 protein expression,HT29 colon cancer cells [2]; [4],markedly inhibited
